Assay results as given in patent US20180186742A1, “PICOLINAMIDES AS FUNGICIDES” (Dow AgroSciences LLC, priority 2017, published 2018).
Read-outs that look alike come from different tables or passages of the source.

Legend:
Assay type in all cases: in vivo
Zymoseptoria tritici = assay: Leaf blotch of wheat (SEPTTR), disease control on wheat seedlings; settings: for pest or weed control at 121.5 g/ha: low volume application at 121.5 g/H; for pest or weed control at 100 ppm: high volume application at 100 ppm
Outline: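 Yuma wheat seedlings with the first leaf fully emerged were sprayed to run-off with compound in acetone plus nine volumes of water containing 110 ppm Triton X-100; track-spray tests used EC formulations with 0.1% Trycol 5941. Z. tritici inoculation came before or after treatment, followed by 100% RH dew periods and a 20 °C greenhouse. Percent control was calculated from severity versus untreated plants.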

Puccinia triticina = assay: Wheat brown rust (PUCCRT), disease control on wheat seedlings; settings: for pest or weed control at 121.5 g/ha: low volume application at 121.5 g/H; for pest or weed control at 100 ppm: high volume application at 100 ppm
Outline: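 Compounds in acetone, diluted with nine volumes of water containing 110 ppm Triton X-100, sprayed to run-off on first-leaf Yuma wheat seedlings; track-spray tests used EC formulations with 0.1% Trycol 5941. Puccinia triticina spores applied before or after treatment. Overnight dark dew room at 22° C, 100% humidity, then greenhouse at 24° C.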

Phakopsora pachyrhizi = assay: Asian soybean rust (PHAKPA), disease control on soybean seedlings; settings: High volume application at 25 ppm
Description: Technical grades of materials were dissolved in acetone, which were then mixed with nine volumes of water containing 0.011% Tween 20. The fungicide solutions were applied onto soybean seedlings using an automated booth sprayer to run-off. All sprayed plants were allowed to air dry prior to further handling.
Soybean plants (variety Williams 82) were grown in soil-less Metro mix, with one plant per pot. Two week old seedlings were used for testing. Plants were inoculated either 3 days prior to or 1 day after fungicide treatments. Plants were incubated for 24 h in a dark dew room at 22° C. and 100% relative humidity then transferred to a growth room at 23° C. for disease to develop. Disease severity was assessed on the sprayed leaves.

[1] = 24 h, 1 Day Protectant, read-out: SEPTTR disease control, 1DP, LV activity
[2] = 72 h, 3 Day Curative, read-out: SEPTTR disease control, 3DC, LV activity
[3] = 24 h, 1 Day Protectant, read-out: PUCCRT disease control, 1DP, LV activity
[4] = 72 h, 3 Day Curative, read-out: PUCCRT disease control, 3DC, LV activity
[5] = 24 h, 1 Day Protectant, read-out: PHAKPA 1DP disease control rating
[6] = 72 h, 3 Day Curative, read-out: PHAKPA 3DC disease control rating
[7] = 24 h, 1 Day Protectant, read-out: SEPTTR disease control, 1DP, HV activity
[8] = 72 h, 3 Day Curative, read-out: SEPTTR disease control, 3DC, HV activity
[9] = 24 h, 1 Day Protectant, read-out: PUCCRT disease control, 1DP, HV activity
[10] = 72 h, 3 Day Curative, read-out: PUCCRT disease control, 3DC, HV activity
[11] = 24 h, 1 Day Protectant, wheat leaf blotch, read-out: SEPTTR 1DP disease control, LV activity
[12] = 72 h, 3 Day Curative, wheat leaf blotch, read-out: SEPTTR 3DC disease control, LV activity
[13] = 24 h, 1 Day Protectant, wheat brown rust, read-out: PUCCRT 1DP disease control, LV activity
[14] = 72 h, 3 Day Curative, wheat brown rust, read-out: PUCCRT 3DC disease control, LV activity

Row | Compound | pest or weed control at 121.5 g/ha (Zymoseptoria tritici; [1]) [%] | pest or weed control at 121.5 g/ha (Zymoseptoria tritici; [2]) [%] | pest or weed control at 121.5 g/ha (Puccinia triticina; [3]) [%] | pest or weed control at 121.5 g/ha (Puccinia triticina; [4]) [%] | pest or weed control at 25 ppm (Phakopsora pachyrhizi; [5]) [%] | pest or weed control at 25 ppm (Phakopsora pachyrhizi; [6]) [%] | pest or weed control at 100 ppm (Zymoseptoria tritici; [7]) [%] | pest or weed control at 100 ppm (Zymoseptoria tritici; [8]) [%] | pest or weed control at 100 ppm (Puccinia triticina; [9]) [%] | pest or weed control at 100 ppm (Puccinia triticina; [10]) [%] | pest or weed control at 121.5 g/ha (Zymoseptoria tritici; [11]) [%] | pest or weed control at 121.5 g/ha (Zymoseptoria tritici; [12]) [%] | pest or weed control at 121.5 g/ha (Puccinia triticina; [13]) [%] | pest or weed control at 121.5 g/ha (Puccinia triticina; [14]) [%]
1 | COc1ccnc(C(=O)N[C@@H](C)C(=O)O[C@@H](C)[C@@H](c2ccccc2)C(C)C)c1OCOC(C)=O [Compound 162] | < 80 | > 80 | > 80 | > 80 | > 80 | < 80 | – | – | – | – | – | – | – | –
2 | COc1ccnc(C(=O)N[C@@H](C)C(=O)O[C@@H](C)[C@H](c2ccccc2)C(C)C)c1OCOC(C)=O [Compound 164] | > 80 | > 80 | > 80 | > 80 | > 80 | < 80 | – | – | – | – | – | – | – | –
3 | COc1ccnc(C(=S)N[C@@H](C)C(=O)O[C@@H](C)[C@@H](c2ccccc2)C2CCCC2)c1OC(C)=O [Compound 177] | < 80 | < 0 | < 80 | < 0 | > 80 | < 0 | – | – | – | – | – | – | – | –
4 | COc1ccnc(C(=O)N[C@@H](C)C(=O)O[C@@H](C)[C@@H](c2ccc(F)cc2C)C(C)C)c1OC(C)=O [Compound 178] | < 0 | < 80 | > 80 | < 80 | < 0 | < 80 | – | – | – | – | – | – | – | –
5 | CCC(CC)[C@H](c1ccc(F)cc1C)[C@H](C)OC(=O)[C@H](C)NC(=O)c1nccc(OC)c1OC(C)=O [Compound 179] | > 80 | > 80 | > 80 | < 0 | < 80 | < 80 | – | – | – | – | – | – | – | –
6 | COc1ccnc(C(=O)N[C@@H](C)C(=O)O[C@@H](C)[C@@H](c2ccc(F)cc2C)C2CCCC2)c1OC(C)=O [Compound 180] | < 80 | < 80 | > 80 | < 80 | < 80 | < 80 | – | – | – | – | – | – | – | –
7 | COc1ccnc(C(=O)N[C@@H](C)C(=O)O[C@@H](C)[C@@H](c2ccc(F)cc2C)C2CCCCC2)c1OC(C)=O [Compound 181] | < 80 | > 80 | < 80 | < 80 | < 0 | < 80 | – | – | – | – | – | – | – | –
8 | CCC(C)[C@H](c1ccc(F)cc1C)[C@H](C)OC(=O)[C@H](C)NC(=O)c1nccc(OC)c1OC(C)=O (some centres unmarked) [Compound 182] | < 80 | > 80 | > 80 | < 80 | < 80 | < 80 | – | – | – | – | – | – | – | –
9 | COc1ccnc(C(=O)N[C@@H](C)C(=O)O[C@@H](C)[C@@H](c2ccc(F)cc2C)C2CCC2)c1OC(C)=O [Compound 183] | < 80 | > 80 | < 80 | < 80 | < 80 | < 80 | – | – | – | – | – | – | – | –
10 | COc1ccnc(C(=O)N[C@@H](C)C(=O)O[C@@H](C)[C@@H](c2ccc(Cl)cc2Cl)C(C)C)c1O [Compound 333] | – | – | – | – | – | – | < 80 | < 80 | > 80 | < 80 | – | – | – | –
11 | COc1ccnc(C(=O)N[C@@H](C)C(=O)O[C@@H](C)[C@H](c2ccc3c(c2)OCO3)C(C)C)c1O [Compound 334] | – | – | – | – | – | – | < 80 | < 0 | > 80 | > 80 | – | – | – | –
12 | COc1ccnc(C(=O)N[C@@H](C)C(=O)O[C@@H](C)[C@H](c2ccc(OC(F)(F)F)cc2)C(C)C)c1O [Compound 335] | – | – | – | – | – | – | > 80 | < 80 | > 80 | > 80 | – | – | – | –
13 | COc1ccnc(C(=O)N[C@@H](C)C(=O)O[C@@H](C)[C@H](c2ccc(OC(C)C)cc2)C(C)C)c1O [Compound 336] | – | – | – | – | – | – | < 80 | < 80 | > 80 | < 80 | – | – | – | –
14 | COc1ccnc(C(=O)N[C@@H](C)C(=O)O[C@@H](C)[C@H](c2ccccc2OC(C)C)C(C)C)c1O [Compound 337] | – | – | – | – | – | – | < 80 | < 0 | > 80 | > 80 | – | – | – | –
15 | COc1ccc([C@H](C(C)C)[C@H](C)OC(=O)[C@H](C)NC(=O)c2nccc(OC)c2O)cc1 [Compound 338] | – | – | – | – | – | – | < 80 | < 80 | > 80 | > 80 | – | – | – | –
16 | COc1ccnc(C(=O)N[C@@H](C)C(=O)O[C@@H](C)[C@H](c2c(F)cc(F)cc2F)C(C)C)c1O [Compound 341] | – | – | – | – | – | – | > 80 | > 80 | > 80 | > 80 | – | – | – | –
17 | COc1ccnc(C(=O)N[C@@H](C)C(=O)O[C@@H](C)[C@H](c2c(F)cccc2Cl)C(C)C)c1O [Compound 343] | – | – | – | – | – | – | > 80 | > 80 | > 80 | > 80 | – | – | – | –
18 | CCC(C)[C@@H](c1ccccc1C)[C@H](C)OC(=O)[C@H](C)NC(=O)c1nccc(OC)c1OC(C)=O (some centres unmarked) [Compound 384] | – | – | – | – | – | – | – | – | – | – | > 80 | > 80 | > 80 | > 80
19 | CCC(CC)[C@@H](c1ccccc1C)[C@H](C)OC(=O)[C@H](C)NC(=O)c1nccc(OC)c1OC(C)=O [Compound 385] | – | – | – | – | – | – | – | – | – | – | > 80 | > 80 | > 80 | > 80
20 | CCC(C)[C@@H](c1ccccc1C)[C@H](C)OC(=O)[C@H](C)NC(=O)c1nccc(OC)c1OC(=O)C(C)C (some centres unmarked) [Compound 386] | – | – | – | – | – | – | – | – | – | – | < 80 | > 80 | > 80 | > 80
21 | CCC(CC)[C@@H](c1ccccc1C)[C@H](C)OC(=O)[C@H](C)NC(=O)c1nccc(OC)c1OC(=O)C(C)C [Compound 387] | – | – | – | – | – | – | – | – | – | – | < 80 | > 80 | > 80 | < 80
22 | COc1ccnc(C(=O)N[C@@H](C)C(=O)O[C@@H](C)[C@H](c2c(F)cc(F)cc2F)C(C)C)c1OC(C)=O [Compound 388] | – | – | – | – | – | – | – | – | – | – | > 80 | > 80 | > 80 | > 80
23 | COc1ccnc(C(=O)N[C@@H](C)C(=O)O[C@@H](C)[C@H](c2ccc(Cl)cc2F)C(C)C)c1OC(C)=O [Compound 389] | – | – | – | – | – | – | – | – | – | – | > 80 | > 80 | > 80 | > 80
24 | COc1ccnc(C(=O)N[C@@H](C)C(=O)O[C@@H](C)[C@H](c2c(F)cccc2Cl)C(C)C)c1OC(C)=O [Compound 390] | – | – | – | – | – | – | – | – | – | – | > 80 | > 80 | > 80 | > 80
25 | COc1ccnc(C(=O)N[C@@H](C)C(=O)O[C@@H](C)[C@H](c2cccc(C)c2)C(C)C)c1OC(C)=O [Compound 391] | – | – | – | – | – | – | – | – | – | – | < 80 | < 80 | > 80 | < 80
26 | COc1ccnc(C(=O)N[C@@H](C)C(=O)O[C@@H](C)[C@H](c2cc(F)ccc2F)C(C)C)c1OC(C)=O [Compound 392] | – | – | – | – | – | – | – | – | – | – | < 80 | > 80 | > 80 | > 80
